For CCCc1nc2c(N)nc3cc(-c4cccc(S(C)(=O)=O)c4)ccc3c2s1, the melting point was 242 to 245 °C.
COc1ccc(-c2snnc2SC)cc1 showed a melting point of 60.5 to 61 °C.
In the case of O=C(O)CCn1c(=O)n(CCN2CCN(c3ccc(F)cc3)CC2)c(=O)c2cscc21, the melting point is reported as 202 to 203 °C.
CN(C)C=C(C(=O)c1ccccc1)c1ccc(F)cc1 gave a melting point of 115 to 116 °C.
For Cc1oc(-c2ccccc2)nc1CCOc1ccc(C[C@@H](C(=O)O)N2CCN(S(=O)(=O)c3ccc([N+](=O)[O-])cc3)CC2)cc1, the melting point was 205 to 207 °C.
For CCCCn1c(=O)c2c(ncn2S(=O)(=O)c2cccc3ccccc23)n(CCCC)c1=O, the melting point was 135 to 136 °C.
Compound Nc1cc([N+](=O)[O-])ccc1OC(F)(F)F has a melting point of 90 to 91 °C.
COc1ccc2c(c1)C(=O)C(Cc1nccs1)CO2 (stereo not drawn) gave a melting point of 71 to 73 °C.
Work on CS(=O)(=O)c1ccc(-c2cccn2-c2ccc(F)cc2)cc1 yielded a melting point of 145 to 147 °C.
In the case of CC1(C)CCC(C)(C)c2cc3c(cc21)C(C)(C)CCC3(C)C, the melting point is reported as 218 to 221 °C.
With O=C(c1ccc(Oc2ccc(F)cc2)nc1)N1CCCNCC1 the melting point was 95.4 °C.
COc1ccc(C=CC2=NNC(C)Cc3cc(OC)c(OC)cc32)c(OC)c1 (stereo not drawn) gave a melting point of 118 to 120 °C.
In the case of CC(C)(C)C(=O)c1c[nH]c2ncc(-c3ccccn3)nc12, the melting point is reported as 276 to 278 °C.
With Cc1ccc(-c2nc(COc3ccc(CCCCn4ccnc4)cc3)cs2)s1 the melting point was 81 to 82 °C.
With CCCCCCOC(=O)c1nc2cc(Cl)ccc2o1 the melting point was 42 to 43 °C.
In the case of COC(=O)C(NC(=O)c1cc2cc(Cl)ccc2[nH]1)C(C)c1ccccc1 (stereo not drawn), the melting point is reported as 135 to 136 °C.
Work on CC1(C)CCc2c(N3CCSCC3)nc3sc4c(NCc5cccnc5)ncnc4c3c2C1 yielded a melting point of 257 to 258 °C.
Cc1cccc(N2C(=S)SCC2(C)O)n1 (stereo not drawn) gave a melting point of 150 to 153 °C.
CON=C(Nc1nc(OC)nc(OC)n1)NS(=O)(=O)c1ccccc1S(=O)(=O)OC gave a melting point of 148 to 150 °C.
Compound COC1=C(Cl)C(=O)C(OC)=C(CCCCCC2=C(OC)C(=O)C(Cl)=C(OC)C2=O)C1=O has a melting point of 79.8 to 80 °C.
Cc1cc(C)c(O)c(C(CCCC(c2cc(C)cc(C)c2O)c2cc(C)cc(C)c2O)c2cc(C)cc(C)c2O)c1 showed a melting point of 236 to 242 °C.
Compound CC(COc1c(-c2ccccc2)c(=O)oc2ccccc12)CN1CCCCC1 (stereo not drawn) has a melting point of 86 to 87 °C.
Compound NC1SC=CN1Sc1ccc(F)cc1F (stereo not drawn) has a melting point of 116 to 117 °C.
With Cc1nc2cc(NC(=O)c3cc4cccnc4n3Cc3ccncc3)ccc2s1 the melting point was 211 to 236 °C.
CCCn1c(=O)c2[nH]c(-c3cc(C)n(CC(=O)Nc4ccc(Cl)cc4)n3)nc2n(CCC)c1=O showed a melting point of 261 to 265 °C.
Work on Cc1cc(Cc2cnc(N)nc2N)cc(C)c1N yielded a melting point of 258 to 260 °C.
Work on CC(C)[C@H](NC(=O)N(C)Cc1ccccn1)C(=O)N[C@@H](Cc1ccccc1)[C@@H](O)C[C@H](Cc1ccccc1)NC(=O)OCc1cccnc1 yielded a melting point of 69 to 71 °C.
With N#Cc1c(Cl)csc1NC=O the melting point was 241 °C.
With C/C(=C\c1ccc(OCC(=O)O)cc1)c1ccc2c(c1)C(C)(C)CCC2(C)C the melting point was 152 to 154 °C.
CC(=O)NCC1(N2CCCCC2)CCCCC1 showed a melting point of 104 °C.
CCC(CC)c1nn(-c2ccc(C(F)(F)F)nn2)cc1CCCOc1c(CC(=O)O)cccc1OC gave a melting point of 81 to 82 °C.
Cc1cc(C2(C(F)(F)F)CC(c3ccc(F)cc3)=NO2)ccc1N (stereo not drawn) showed a melting point of 108 to 110 °C.
CC(=NOC(=O)N(C)SC(Cl)(Cl)Cl)SCCC#N showed a melting point of 136 to 138 °C.
Compound Oc1ccc2c(c1)CCCC(c1ccccc1)=C2c1ccc(OCCCCCSCc2cccs2)cc1 has a melting point of 178 °C.
Cc1ccc2c(c1)c(Cc1nc3c(F)c(F)cc(F)c3s1)cn2CC(=O)O showed a melting point of 131 to 133 °C.
For CCc1cc(C)cc(CC)c1C1C(=O)C2=CC(CCC(C)=NOC)CC2C1=O (stereo not drawn), the melting point was 79 to 80 °C.
Cn1ncc(S(=O)Cc2ccccc2)c(Cl)c1=O (stereo not drawn) showed a melting point of 129 to 131 °C.
N[C@@H](Cc1ccc(C(F)(F)F)cc1)[C@H](O)c1ccc(F)c(F)c1 (racemic) showed a melting point of 99 to 100 °C.
For C[C@@H]1CN(c2ccc([N+](=O)[O-])cc2C#N)C[C@H](C)N1, the melting point was 109 to 110 °C.
In the case of CC12CCC3c4ccc(OC(=O)c5ccccc5)cc4CCC3C1CCC2OC(=O)c1cccnc1 (stereo not drawn), the melting point is reported as 151 to 154 °C.
For COc1ccc(N2CCN(c3c(C)c(C)c4c(c3C)CC(C)(CN3CCS(=O)(=O)CC3)O4)CC2)cc1 (stereo not drawn), the melting point was 145 to 164 °C.
Work on N#Cc1nn(-c2c(Cl)cc(C(F)(F)F)cc2Cl)c(N)c1-c1ccc(F)c(Cl)c1 yielded a melting point of 197 to 198 °C.
With CCN1CCN(c2nccc(Oc3ccc(NC(=O)c4cc(F)cc(N5CCOCC5)c4)c4ccccc34)n2)CC1 the melting point was 185 to 186 °C.
With CCS(=O)(=O)n1cc(C(=O)C2CSC(c3cccnc3)N2)c2ccc(OCc3ccccc3)cc21 (stereo not drawn) the melting point was 76 to 82 °C.
Cc1cc(-c2cc(COS(C)(=O)=O)c(=O)n(CC=Cc3ccccc3)n2)ccc1F showed a melting point of 78.4 to 80.5 °C.
CCCCOC(=O)[C@H]1CN(c2cc(F)c(N3CCSCC3)c(F)c2)C(=O)O1 gave a melting point of 102 to 103 °C.
CCN(CC)C(=O)C=C1C=C(C(C)(C)C)C(=O)C(C(C)(C)C)=C1 showed a melting point of 109 to 110 °C.
Work on CN1CCN(C(=O)OC2C3=C(SCCS3)C(=O)N2c2ccc(Cl)cn2)CC1 (stereo not drawn) yielded a melting point of 170 °C.
In the case of N#CNC(=S)Nc1ccc(F)cc1, the melting point is reported as greater than 270 °C.
Compound COc1cc2c(cc1S(C)(=O)=O)CCN(C(C)=O)CC2 has a melting point of 159 to 162 °C.
Compound CNC(C)=Nc1ccc(-c2c[nH]cn2)cc1 has a melting point of 226 to 227 °C.
For O=C(CBr)C1=NO[C@@H](c2ccccc2)C1, the melting point was 31 to 33 °C.
In the case of CN(C)c1noc(-c2cc(C(C)(C)C)c(O)c(C(C)(C)C)c2)n1, the melting point is reported as 135 to 138 °C.
For COc1ccc(S(=O)(=O)Nc2cc(Cl)ccc2/C=C/c2ccncc2)cc1, the melting point was 190 to 193 °C.
Work on Cn1cc(NC(=O)c2cc(NC(=O)c3cc([N+](=O)[O-])cn3C)cn2C)cc1C(=O)NCCN1CCOCC1 yielded a melting point greater than 230 °C.
CC(=O)CCCCC(=O)Nc1ccc(CCC(=O)O)cc1 showed a melting point of 148 to 160 °C.
In the case of O=c1[nH]c(=S)c(C2c3ccccc3C=Cc3ccccc32)cn1-c1ccc(Sc2n[nH]c(C(F)(F)F)n2)nn1, the melting point is reported as 165 °C.
CCOC(=O)c1sc(N2CCN(Cc3ccc(Cl)cc3)C2=O)nc1C showed a melting point of 117 to 119 °C.
For NCc1nnc(-c2ncn3c2[C@@H]2CCCN2C(=O)c2sccc2-3)o1, the melting point was 214 to 216 °C.
Work on O=C(CCCl)c1cc2[nH]c(=O)[nH]c2cc1Cl yielded a melting point of 201 to 204 °C.
Compound CCOC(=O)C1=C(COCc2nc(CCN3C(=O)c4ccccc4C3=O)cs2)NC(C)=C(C(=O)OC)C1c1ccccc1Cl (stereo not drawn) has a melting point of 156 to 157 °C.
Work on Cn1ncnc1COc1nn2c(-c3ccccc3)nnc2cc1N1CCOCC1 yielded a melting point of 210 to 211 °C.
With CC(c1cccnn1)C(O)(Cn1cncn1)c1ccc(F)cc1F (stereo not drawn) the melting point was 134 to 135 °C.
With O=C1COC(CCCOC(=O)c2ccccc2)(c2ccc(Cl)c(Cl)c2)CN1 (stereo not drawn) the melting point was 92 °C.
In the case of CCOC(=O)c1c(C(F)(F)F)[nH]cc(-c2cc(OC(C)C)c(Cl)cc2F)c1=O, the melting point is reported as 118 to 119 °C.
Work on CN(C(=O)c1ccc(-n2cc3ccccc3n2)cc1)C1CCN(C(=O)OC(C)(C)C)CC1 yielded a melting point of 176 to 177 °C.
Compound COc1cc2c3c(c1)c(N)c(C(=O)N1CCc4ccccc41)c(=O)n3CCO2 has a melting point of 130 to 140 °C.
Work on COc1ccc(COC(=O)n2c(S(=O)Cc3ccc(C)cn3)nc3cscc32)cc1 (stereo not drawn) yielded a melting point of 119 to 120 °C.
In the case of CN1C(=O)CC[C@]2(C)c3ccc(-c4c(F)cccc4F)cc3CC[C@@H]12, the melting point is reported as 125 to 130 °C.
With COC(=O)c1nsc2nccn12 the melting point was 164 to 165 °C.
COc1ccc(C(=O)N2c3ccccc3C(Nc3ccc(Br)cc3)CC2C)cc1OC (stereo not drawn) showed a melting point of 173 to 175 °C.
In the case of COCCOc1ccc(/C=C/C(=O)NS(=O)(=O)NCCc2ccccc2)c(Oc2ncc(C(F)(F)F)cc2Cl)c1, the melting point is reported as 85 to 85.5 °C.
Work on Cn1cc(C(=O)NCc2ccc(Cl)cc2)c(=O)c2sc(C=O)c(COCC[Si](C)(C)C)c21 yielded a melting point of 174 to 176 °C.
Compound CC(C)(C)OC(=O)OCc1ccc(COC(=O)OC(C)(C)C)cc1 has a melting point of 71 to 74 °C.
Work on COc1ccc(C=CC(=O)N2CCOCC2)cc1C(F)F yielded a melting point of 119 °C.
With Fc1ccc2c(c1)N=C(N1CCNCC1)c1sccc1N2 the melting point was 165 to 167 °C.
For CCCCn1ncc2cc(/C=C/c3ccc(O)cc3)ccc2c1=O, the melting point was 225 to 230 °C.
COc1ccc(C(=O)Nc2ccc(F)cc2)cc1N([N+](=O)[O-])S(=O)(=O)c1ccccc1 gave a melting point of 221 to 240 °C.
CCOCc1nc2c(N)nc3ccccc3c2n1CCOCCNS(C)(=O)=O showed a melting point of 152 to 155 °C.
In the case of COc1cccc(Cc2cc(Br)ccc2O)c1, the melting point is reported as 97 to 102 °C.
Compound CC=Cc1c(NC(=O)C(F)(F)F)ccc2c(=O)cc(C(=O)OCC)oc12 has a melting point of 140 to 141 °C.
For CC(=O)NC[C@H]1CN(c2ccc(-c3nsc(C(N)=O)n3)c(F)c2)C(=O)O1, the melting point was 238 to 240 °C.
COC(=O)CSCC(NC(=O)OC(C)(C)C)c1ccc(F)cc1 (stereo not drawn) showed a melting point of 61 to 62 °C.
Compound COc1cc(-c2cnc3[nH]cc(C(=O)O)c3n2)cc(OC)c1OC has a melting point of 238 °C.
Compound CC(Cn1ncnn1)n1nnc2cc3c(=O)n(CC(C)(C)O)nnc3cc2c1=O (stereo not drawn) has a melting point of 128 to 130 °C.
For Cn1ncnc1COc1nn2c(-c3cnccn3)nncc2c1-c1ccccc1F, the melting point was 179 to 180 °C.
For COc1c(C)cnc(C#N)c1C, the melting point was 59 to 61 °C.
Cn1c(C(F)(F)F)cc(=O)n(-c2c(O)cc(F)cc2F)c1=O showed a melting point of 195 to 196 °C.
With COCC(=O)Nc1nc(NC(=O)COC)nc(NC2CC2)n1 the melting point was 175 to 180 °C.
O=c1[nH]c2ccc(-c3cc(=O)c4ccccc4o3)cc2o1 gave a melting point of 348 °C.
Compound COc1cccc(-c2cn3c(n2)CCc2ccccc2-3)c1 has a melting point of 107 to 109 °C.
COc1cc(C=O)ccc1OCc1nc(-c2cccc([N+](=O)[O-])c2)oc1C gave a melting point of 179 to 180 °C.
For Cc1nnc(-c2ccc(C)c(Br)c2)o1, the melting point was 91 to 93 °C.
Compound CC(C)NC(Nc1cc(C(F)(F)F)cc(C(F)(F)F)c1)=C(C#N)S(C)(=O)=O has a melting point of 188 to 191 °C.
Compound CC(=O)OCC(COC(C)=O)OCn1cnc2c(=O)[nH]c(N)nc21 has a melting point of 237 to 239 °C.
CCOC(=O)c1c(N)sc(-c2ccc([N+](=O)[O-])cc2)c1C gave a melting point of 117 to 119 °C.
In the case of COc1ccc(-c2c(O)c3ccc(Cl)cc3[nH]c2=O)cc1OC, the melting point is reported as 312 to 314 °C.
In the case of Cc1nc[nH]c1CSCCN=C(NC#N)NCCCCCCCN, the melting point is reported as 84 to 87 °C.
